Laboratory results published in patent publication US8076487B2, “Pyridone derivative and herbicide” (Kumiai Chemical Industry Co., Ltd., priority 2006, dated 2011).

Tests used:
Assay type in all cases: in vivo
[1] = tested on: barnyardgrass (Echinochloa crus-galli (L.) P. Beauv. var. crus-galli); experiment: Test Example 3: herbicidal effect by application to upland field (foliage treatment); settings: 14th day after application; for herbicidal effect (index), Barnyardgrass: foliage treatment, plants grown two weeks, 1,000 g active ingredient per hectare; for herbicidal effect, Barnyardgrass: foliage treatment, 1,000 g active ingredient per 1 hectare, greenhouse
Method in brief: (§1)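 Field-soil pots sown with the four weed species and grown two weeks in a greenhouse, then sprayed over the whole plant with wettable powder in water at 1,000 g active ingredient/ha in 1,000 L/ha. Herbicidal effect scored against a rating standard 14 days after treatment.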

[2] = tested on: slender amaranth (Amaranthus viridis L.); experiment: as above; settings: 14th day after application; for herbicidal effect (index), Slender Amaranth: foliage treatment, plants grown two weeks, 1,000 g active ingredient per hectare; for herbicidal effect, Slender Amaranth: foliage treatment, 1,000 g active ingredient per 1 hectare, greenhouse
Method in brief: as §1

[3] = tested on: green foxtail (Setaria viridis (L.) P. Beauv.); experiment: as above; settings: 14th day after application; for herbicidal effect (index), Green Foxtail: foliage treatment, plants grown two weeks, 1,000 g active ingredient per hectare; for herbicidal effect, Green Foxtail: foliage treatment, 1,000 g active ingredient per 1 hectare, greenhouse
Method in brief: as §1

[4] = tested on: velvetleaf (Abutilon theophrasti medicus); experiment: as above; settings: 14th day after application; for herbicidal effect (index), Velvetleaf: foliage treatment, plants grown two weeks, 1,000 g active ingredient per hectare; for herbicidal effect, Velvetleaf: foliage treatment, 1,000 g active ingredient per 1 hectare, greenhouse
Method in brief: as §1

[5] = tested on: early watergrass (Echinochloa oryzicola Vasing); experiment: Test Example 1: herbicidal effect by soil application to paddy field; settings: paddy field soil application; active ingredient 1,000 g per 1 hectare; wettable powder added dropwise to water surface the day after sowing; examined on the 21st day after application
Method in brief: (§2)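 Plants were sown in flooded (3 cm) paddy soil and evaluated for herbicidal effect 21 days after soil application in a greenhouse.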

[6] = tested on: heartshape false pickerelweed (Monochoria vaginalis (Burm.f.) C.Presl); experiment: as above; settings: paddy field soil application; active ingredient 1,000 g per 1 hectare; wettable powder added dropwise to water surface the day after sowing; examined on the 21st day after application
Method in brief: as §2

[7] = tested on: Japanese bulrush (Scirpus juncoides Roxb.); experiment: as above; settings: paddy field soil application; active ingredient 1,000 g per 1 hectare; wettable powder added dropwise to water surface the day after sowing; examined on the 21st day after application
Method in brief: as §2

Structure (SMILES)	herbicidal effect (index), Barnyardgrass [1]	herbicidal effect (index), Slender Amaranth [2]	herbicidal effect (index), Green Foxtail [3]	herbicidal effect (index), Velvetleaf [4]	herbicidal effect, Echinochloa oryzicola Vasing [5]	herbicidal effect, Monochoria vaginalis (Burm. f.) C. Presl [6]	herbicidal effect, Scirpus juncoides Roxb. [7]	herbicidal effect, Barnyardgrass [1]	herbicidal effect, Slender Amaranth [2]	herbicidal effect, Green Foxtail [3]	herbicidal effect, Velvetleaf [4]
C=C(C)Cn1c(C(F)(F)F)ccc(C(=O)C2=C(O)CCCC2=O)c1=O [I-12]	5 (90% or more of herbicidal effect and crop phytotoxicity)	5 (90% or more of herbicidal effect and crop phytotoxicity)	5 (90% or more of herbicidal effect and crop phytotoxicity)	5 (90% or more of herbicidal effect and crop phytotoxicity)	5 (90% or more of herbicidal effect and crop phytotoxicity)	5 (90% or more of herbicidal effect and crop phytotoxicity)	5 (90% or more of herbicidal effect and crop phytotoxicity)	–	–	–	–
CCCc1ccc(C(=O)C2=C(O)CCCC2=O)c(=O)n1-c1ccccc1 [I-231]	–	–	–	–	5 (90% or more of herbicidal effect and crop phytotoxicity)	5 (90% or more of herbicidal effect and crop phytotoxicity)	5 (90% or more of herbicidal effect and crop phytotoxicity)	4 (70 to less than 90% of herbicidal effect and crop phytotoxicity)	4 (70 to less than 90% of herbicidal effect and crop phytotoxicity)	3 (50 to less than 70% of herbicidal effect and crop phytotoxicity)	4 (70 to less than 90% of herbicidal effect and crop phytotoxicity)
COC(=O)Nn1c(C(F)(F)F)ccc(C(=O)C2=C(O)CCCC2=O)c1=O [I-189]	–	–	–	–	5 (90% or more of herbicidal effect and crop phytotoxicity)	5 (90% or more of herbicidal effect and crop phytotoxicity)	5 (90% or more of herbicidal effect and crop phytotoxicity)	4 (70 to less than 90% of herbicidal effect and crop phytotoxicity)	5 (90% or more of herbicidal effect and crop phytotoxicity)	4 (70 to less than 90% of herbicidal effect and crop phytotoxicity)	5 (90% or more of herbicidal effect and crop phytotoxicity)
CCN(CC)n1c(C(F)(F)F)ccc(C(=O)C2=C(O)CCCC2=O)c1=O [I-172]	–	–	–	–	5 (90% or more of herbicidal effect and crop phytotoxicity)	5 (90% or more of herbicidal effect and crop phytotoxicity)	5 (90% or more of herbicidal effect and crop phytotoxicity)	5 (90% or more of herbicidal effect and crop phytotoxicity)	5 (90% or more of herbicidal effect and crop phytotoxicity)	5 (90% or more of herbicidal effect and crop phytotoxicity)	5 (90% or more of herbicidal effect and crop phytotoxicity)
C#CCn1c(C(F)(F)F)ccc(C(=O)C2=C(O)CCCC2=O)c1=O [I-14]	5 (90% or more of herbicidal effect and crop phytotoxicity)	5 (90% or more of herbicidal effect and crop phytotoxicity)	5 (90% or more of herbicidal effect and crop phytotoxicity)	5 (90% or more of herbicidal effect and crop phytotoxicity)	5 (90% or more of herbicidal effect and crop phytotoxicity)	5 (90% or more of herbicidal effect and crop phytotoxicity)	5 (90% or more of herbicidal effect and crop phytotoxicity)	–	–	–	–
CC1CC(C)C(O)=C(C(=O)c2ccc(C(F)(F)F)n(C)c2=O)C1=O (centres unmarked) [II-7]	–	–	–	–	5 (90% or more of herbicidal effect and crop phytotoxicity)	5 (90% or more of herbicidal effect and crop phytotoxicity)	5 (90% or more of herbicidal effect and crop phytotoxicity)	4 (70 to less than 90% of herbicidal effect and crop phytotoxicity)	5 (90% or more of herbicidal effect and crop phytotoxicity)	4 (70 to less than 90% of herbicidal effect and crop phytotoxicity)	5 (90% or more of herbicidal effect and crop phytotoxicity)
COCC(C)n1c(C(F)(F)F)ccc(C(=O)C2=C(O)C3C=CC(C3)C2=O)c1=O (centres unmarked) [III-44]	–	–	–	–	5 (90% or more of herbicidal effect and crop phytotoxicity)	5 (90% or more of herbicidal effect and crop phytotoxicity)	5 (90% or more of herbicidal effect and crop phytotoxicity)	4 (70 to less than 90% of herbicidal effect and crop phytotoxicity)	5 (90% or more of herbicidal effect and crop phytotoxicity)	5 (90% or more of herbicidal effect and crop phytotoxicity)	5 (90% or more of herbicidal effect and crop phytotoxicity)
CNn1c(C(F)(F)F)ccc(C(=O)C2=C(O)CCCC2=O)c1=O [I-157]	–	–	–	–	5 (90% or more of herbicidal effect and crop phytotoxicity)	5 (90% or more of herbicidal effect and crop phytotoxicity)	5 (90% or more of herbicidal effect and crop phytotoxicity)	5 (90% or more of herbicidal effect and crop phytotoxicity)	5 (90% or more of herbicidal effect and crop phytotoxicity)	5 (90% or more of herbicidal effect and crop phytotoxicity)	5 (90% or more of herbicidal effect and crop phytotoxicity)
Cn1ncc(C(=O)c2ccc(C(F)(F)F)n(-c3cccc(S(C)(=O)=O)c3)c2=O)c1O [IV-74]	–	–	–	–	4 (70 to less than 90% of herbicidal effect and crop phytotoxicity)	4 (70 to less than 90% of herbicidal effect and crop phytotoxicity)	5 (90% or more of herbicidal effect and crop phytotoxicity)	4 (70 to less than 90% of herbicidal effect and crop phytotoxicity)	5 (90% or more of herbicidal effect and crop phytotoxicity)	4 (70 to less than 90% of herbicidal effect and crop phytotoxicity)	5 (90% or more of herbicidal effect and crop phytotoxicity)
O=C(C1=C(O)C2C=CC(C2)C1=O)c1ccc(C(F)(F)F)n(CC2CCCO2)c1=O (centres unmarked) [III-43]	–	–	–	–	5 (90% or more of herbicidal effect and crop phytotoxicity)	5 (90% or more of herbicidal effect and crop phytotoxicity)	5 (90% or more of herbicidal effect and crop phytotoxicity)	5 (90% or more of herbicidal effect and crop phytotoxicity)	5 (90% or more of herbicidal effect and crop phytotoxicity)	3 (50 to less than 70% of herbicidal effect and crop phytotoxicity)	5 (90% or more of herbicidal effect and crop phytotoxicity)
Cn1ncc(C(=O)c2ccc(C(F)(F)F)n(-c3ccc(OC(F)(F)F)cc3)c2=O)c1O [IV-67]	–	–	–	–	5 (90% or more of herbicidal effect and crop phytotoxicity)	5 (90% or more of herbicidal effect and crop phytotoxicity)	5 (90% or more of herbicidal effect and crop phytotoxicity)	4 (70 to less than 90% of herbicidal effect and crop phytotoxicity)	5 (90% or more of herbicidal effect and crop phytotoxicity)	4 (70 to less than 90% of herbicidal effect and crop phytotoxicity)	5 (90% or more of herbicidal effect and crop phytotoxicity)
